Data from patent US20250382344A1, “Soluble GLP1/GIP/NPY2 Receptor Triple Agonists” (Boehringer Ingelheim International GmH, priority 2024, published 2025).

Experiment: Solubility in 0.1 M phosphate buffer at pH 7
Assay type: physicochemical
Details: 0.1 M phosphate buffer at pH 7, 10 mg/mL final peptide concentration, shaking 2 hours at room temperature, peptides as TFA-salts; measured sample pH 6.5-7.0; read-out: Solubility
Experimental: Peptides (as TFA-salts) were weighed out in a filter unit (Mini-UniPrep Syringeless Filter 0.45 μm, Whatman PVDF), and 0.1 M phosphate buffer at pH 7 was added to achieve 10 mg/mL final peptide concentration. The peptides were dissolved by shaking the filter units horizontally at 600 rpm for 2 hours at room temperature. Samples were then filtered to remove any insoluble particles. Controls were prepared by weighing out the corresponding peptide solid material and dissolving it in an appropriate vehicle (e.g. ACN:H2O) to a final concentration of 1 mg/mL. Both, the control and sample were analyzed by reversed phase chromatography. The area under the peak of the sample was compared to the control and the solubility was calculated based on that ratio. The pH was measured and recorded for each sample.

| solubility [µg/mL] | SMILES |
| --- | --- |
| 9100 | CC[C@H](C)[C@H](NC(=O)[C@H](Cc1ccccc1)NC(=O)[C@H](C)NC(=O)C(C)(C)NC(=O)[C@H](CCC(N)=O)NC(=O)[C@H](C)NC(=O)[C@H](CCC(N)=O)NC(=O)[C@H](CCCCN)NC(=O)[C@H](CC(=O)O)NC(=O)[C@H](CC(C)C)NC(=O)C(C)(C)NC(=O)[C@@H](NC(=O)[C@H](CO)NC(=O)[C@H](Cc1ccc(O)cc1)NC(=O)[C@H](CC(=O)O)NC(=O)[C@H](CO)NC(=O)[C@@H](NC(=O)[C@H](Cc1ccccc1)NC(=O)[C@@H](NC(=O)CNC(=O)[C@H](CCC(=O)O)NC(=O)C(C)(C)NC(=O)[C@@H](N)Cc1ccc(O)cc1)[C@@H](C)O)[C@@H](C)O)[C@@H](C)CC)C(=O)N[C@@H](CCCNC(=N)N)C(=O)N[C@@H](Cc1c[nH]cn1)C(=O)N[C@@H](CC(C)C)C(=O)N[C@H](C(=O)N[C@@H](CC(N)=O)C(=O)N[C@@H](CCCCNC(=O)[C@@H](N)CCCCNC(=O)CC[C@H](NC(=O)CC[C@H](NC(=O)CC[C@H](NC(=O)CC[C@H](NC(=O)CC[C@H](NC(=O)CC[C@H](NC(=O)CCCCCCCCCCCCCCCCC(=O)O)C(=O)O)C(=O)O)C(=O)O)C(=O)O)C(=O)O)C(=O)O)C(=O)NC(C)(C)C(=O)N[C@H](C(=O)N[C@@H](CCCNC(=N)N)C(=O)N[C@@H](CCC(N)=O)C(=O)N[C@@H](CCCNC(=N)N)C(=O)N[C@@H](Cc1ccc(O)cc1)C(N)=O)[C@@H](C)O)[C@@H](C)CC [Compound 102, Y-Aib-E-G-T-F-T-S-D-Y-S-I-Aib-L-D-K-Q-A-Q-Aib-A-F-I-R-H-L-I-N-K(1,3)-Aib-T-R-Q-R-Y-NH2.C18DA-gGlu-gGlu-gGlu-gGlu-gGlu-gGlu-eLys(1,2)] |
| 9200 | CC[C@H](C)[C@H](NC(=O)[C@H](CC(C)C)NC(=O)[C@H](Cc1c[nH]cn1)NC(=O)[C@H](CCCNC(=N)N)NC(=O)[C@@H](NC(=O)[C@H](Cc1ccccc1)NC(=O)[C@H](C)NC(=O)C(C)(C)NC(=O)[C@H](CCC(N)=O)NC(=O)[C@H](C)NC(=O)[C@H](CCC(N)=O)NC(=O)[C@H](CCC(=O)O)NC(=O)[C@H](CC(=O)O)NC(=O)[C@H](CC(C)C)NC(=O)C(C)(C)NC(=O)[C@@H](NC(=O)[C@H](CO)NC(=O)[C@H](Cc1ccc(O)cc1)NC(=O)[C@H](CC(=O)O)NC(=O)[C@H](CO)NC(=O)[C@@H](NC(=O)[C@H](Cc1ccccc1)NC(=O)[C@@H](NC(=O)CNC(=O)[C@H](CCC(=O)O)NC(=O)C(C)(C)NC(=O)[C@@H](N)Cc1ccc(O)cc1)[C@@H](C)O)[C@@H](C)O)[C@@H](C)CC)C(C)C)C(=O)N[C@@H](CC(N)=O)C(=O)N[C@@H](CCCCNC(=O)[C@@H](N)CCCCNC(=O)CC[C@H](NC(=O)CC[C@H](NC(=O)CC[C@H](NC(=O)CC[C@H](NC(=O)CC[C@H](NC(=O)CCCCCCCCCCCCCCCCC(=O)O)C(=O)O)C(=O)O)C(=O)O)C(=O)O)C(=O)O)C(=O)NC(C)(C)C(=O)N[C@H](C(=O)N[C@@H](CCCNC(=N)N)C(=O)N[C@@H](CCC(N)=O)C(=O)N[C@@H](CCCNC(=N)N)C(=O)N[C@@H](Cc1ccc(O)cc1)C(N)=O)[C@@H](C)O [Compound 108, Y-Aib-E-G-T-F-T-S-D-Y-S-I-Aib-L-D-E-Q-A-Q-Aib-A-F-V-R-H-L-I-N-K(1,3)-Aib-T-R-Q-R-Y-NH2.C18DA-gGlu-gGlu-gGlu-gGlu-gGlu-eLys(1,2)] |
| 800 | CC[C@H](C)[C@H](NC(=O)[C@H](CC(C)C)NC(=O)[C@H](Cc1c[nH]cn1)NC(=O)[C@H](CCCNC(=N)N)NC(=O)[C@@H](NC(=O)[C@H](Cc1ccccc1)NC(=O)[C@H](C)NC(=O)C(C)(C)NC(=O)[C@H](CCC(N)=O)NC(=O)[C@H](C)NC(=O)[C@H](CCC(N)=O)NC(=O)[C@H](CCCCN)NC(=O)[C@H](CCC(=O)O)NC(=O)[C@H](CC(C)C)NC(=O)C(C)(C)NC(=O)[C@@H](NC(=O)[C@H](CO)NC(=O)[C@H](Cc1ccc(O)cc1)NC(=O)[C@H](CC(=O)O)NC(=O)[C@H](CO)NC(=O)[C@@H](NC(=O)[C@H](Cc1ccccc1)NC(=O)[C@@H](NC(=O)CNC(=O)[C@H](CCC(=O)O)NC(=O)C(C)(C)NC(=O)[C@@H](N)Cc1ccc(O)cc1)[C@@H](C)O)[C@@H](C)O)[C@@H](C)CC)C(C)C)C(=O)N[C@@H](CC(N)=O)C(=O)N[C@@H](CCCCNC(=O)COCCOCCNC(=O)CC[C@H](NC(=O)CC[C@H](NC(=O)CC[C@H](NC(=O)CC[C@H](NC(=O)CCCCCCCCCCCCCCCCC(=O)O)C(=O)O)C(=O)O)C(=O)O)C(=O)O)C(=O)NC(C)(C)C(=O)N[C@H](C(=O)N[C@@H](CCCNC(=N)N)C(=O)N[C@@H](CCC(N)=O)C(=O)N[C@@H](CCCNC(=N)N)C(=O)N[C@@H](Cc1ccc(O)cc1)C(N)=O)[C@@H](C)O [Compound 110, Y-Aib-E-G-T-F-T-S-D-Y-S-I-Aib-L-E-K-Q-A-Q-Aib-A-F-V-R-H-L-I-N-K(1,3)-Aib-T-R-Q-R-Y-NH2.C18DA-gGlu-gGlu-gGlu-gGlu-OEG(1,2)] |
| 4000 | CC[C@H](C)[C@H](NC(=O)[C@H](CC(C)C)NC(=O)[C@H](Cc1c[nH]cn1)NC(=O)[C@H](CCCNC(=N)N)NC(=O)[C@@H](NC(=O)[C@H](Cc1ccccc1)NC(=O)[C@H](C)NC(=O)C(C)(C)NC(=O)[C@H](C)NC(=O)[C@H](C)NC(=O)[C@H](CCC(N)=O)NC(=O)[C@H](CCCCN)NC(=O)[C@H](CCC(=O)O)NC(=O)[C@H](CC(C)C)NC(=O)C(C)(C)NC(=O)[C@@H](NC(=O)[C@H](CO)NC(=O)[C@H](Cc1ccc(O)cc1)NC(=O)[C@H](CC(=O)O)NC(=O)[C@H](CO)NC(=O)[C@@H](NC(=O)[C@H](Cc1ccccc1)NC(=O)[C@@H](NC(=O)CNC(=O)[C@H](CCC(=O)O)NC(=O)C(C)(C)NC(=O)[C@@H](N)Cc1ccc(O)cc1)[C@@H](C)O)[C@@H](C)O)[C@@H](C)CC)C(C)C)C(=O)N[C@@H](CC(N)=O)C(=O)N[C@@H](CCCCNC(=O)[C@@H](N)CCCCNC(=O)CC[C@H](NC(=O)CC[C@H](NC(=O)CC[C@H](NC(=O)CC[C@H](NC(=O)CC[C@H](NC(=O)CC[C@H](NC(=O)CCCCCCCCCCCCCCCCC(=O)O)C(=O)O)C(=O)O)C(=O)O)C(=O)O)C(=O)O)C(=O)O)C(=O)NC(C)(C)C(=O)N[C@H](C(=O)N[C@@H](CCCNC(=N)N)C(=O)N[C@@H](CCC(N)=O)C(=O)N[C@@H](CCCNC(=N)N)C(=O)N[C@@H](Cc1ccc(O)cc1)C(N)=O)[C@@H](C)O [Compound 111, Y-Aib-E-G-T-F-T-S-D-Y-S-I-Aib-L-E-K-Q-A-A-Aib-A-F-V-R-H-L-I-N-K(1,3)-Aib-T-R-Q-R-Y-NH2.C18DA-gGlu-gGlu-gGlu-gGlu-gGlu-gGlu-eLys(1,2)] |
| 4400 | CC[C@H](C)[C@H](NC(=O)[C@H](CC(C)C)NC(=O)[C@H](Cc1c[nH]cn1)NC(=O)[C@H](CCCNC(=N)N)NC(=O)[C@@H](NC(=O)[C@H](Cc1ccccc1)NC(=O)[C@H](C)NC(=O)C(C)(C)NC(=O)[C@H](CCC(N)=O)NC(=O)[C@H](C)NC(=O)[C@H](CCC(N)=O)NC(=O)[C@H](CCCCN)NC(=O)[C@H](CCC(=O)O)NC(=O)[C@H](CC(C)C)NC(=O)C(C)(C)NC(=O)[C@H](CCC(=O)O)NC(=O)[C@H](CO)NC(=O)[C@H](Cc1ccc(O)cc1)NC(=O)[C@H](CC(=O)O)NC(=O)[C@H](CO)NC(=O)[C@@H](NC(=O)[C@H](Cc1ccccc1)NC(=O)[C@@H](NC(=O)CNC(=O)[C@H](CCC(=O)O)NC(=O)C(C)(C)NC(=O)[C@@H](N)Cc1ccc(O)cc1)[C@@H](C)O)[C@@H](C)O)C(C)C)C(=O)N[C@@H](CC(N)=O)C(=O)N[C@@H](CCCCNC(=O)[C@@H](N)CCCCNC(=O)CC[C@H](NC(=O)CC[C@H](NC(=O)CC[C@H](NC(=O)CC[C@H](NC(=O)CC[C@H](NC(=O)CC[C@H](NC(=O)CCCCCCCCCCCCCCCCC(=O)O)C(=O)O)C(=O)O)C(=O)O)C(=O)O)C(=O)O)C(=O)O)C(=O)NC(C)(C)C(=O)N[C@H](C(=O)N[C@@H](CCCNC(=N)N)C(=O)N[C@@H](CCC(N)=O)C(=O)N[C@@H](CCCNC(=N)N)C(=O)N[C@@H](Cc1ccc(O)cc1)C(N)=O)[C@@H](C)O [Compound 112, Y-Aib-E-G-T-F-T-S-D-Y-S-E-Aib-L-E-K-Q-A-Q-Aib-A-F-V-R-H-L-I-N-K(1,3)-Aib-T-R-Q-R-Y-NH2.C18DA-gGlu-gGlu-gGlu-gGlu-gGlu-gGlu-eLys(1,2)] |
| 4800 | CC[C@H](C)[C@H](NC(=O)[C@H](CC(C)C)NC(=O)[C@H](Cc1c[nH]cn1)NC(=O)[C@H](CCCNC(=N)N)NC(=O)[C@@H](NC(=O)[C@H](Cc1ccccc1)NC(=O)[C@H](C)NC(=O)C(C)(C)NC(=O)[C@H](CCC(N)=O)NC(=O)[C@H](C)NC(=O)[C@H](CCC(N)=O)NC(=O)[C@H](CCCCN)NC(=O)[C@H](CCC(=O)O)NC(=O)[C@H](CC(C)C)NC(=O)C(C)(C)NC(=O)[C@@H](NC(=O)[C@H](CO)NC(=O)[C@H](Cc1ccc(O)cc1)NC(=O)[C@H](CC(=O)O)NC(=O)[C@H](CO)NC(=O)[C@@H](NC(=O)[C@H](Cc1ccccc1)NC(=O)[C@@H](NC(=O)CNC(=O)[C@H](CCC(=O)O)NC(=O)C(C)(C)NC(=O)[C@@H](N)Cc1ccc(O)cc1)[C@@H](C)O)[C@@H](C)O)[C@@H](C)CC)C(C)C)C(=O)N[C@@H](CC(N)=O)C(=O)N[C@@H](CCCCNC(=O)COCCOCCNC(=O)COCCOCCNC(=O)CC[C@H](NC(=O)CC[C@H](NC(=O)CC[C@H](NC(=O)CC[C@H](NC(=O)CC[C@H](NC(=O)CCCCCCCCCCCCCCCCC(=O)O)C(=O)O)C(=O)O)C(=O)O)C(=O)O)C(=O)O)C(=O)NC(C)(C)C(=O)N[C@H](C(=O)N[C@@H](CCCNC(=N)N)C(=O)N[C@@H](CCC(N)=O)C(=O)N[C@@H](CCCNC(=N)N)C(=O)N[C@@H](Cc1ccc(O)cc1)C(N)=O)[C@@H](C)O [Compound 117, Y-Aib-E-G-T-F-T-S-D-Y-S-I-Aib-L-E-K-Q-A-Q-Aib-A-F-V-R-H-L-I-N-K(1,3)-Aib-T-R-Q-R-Y-NH2.C18DA-gGlu-gGlu-gGlu-gGlu-gGlu-OEG-OEG(1,2)] |
